Test results from publication PMC11436758, “Computer-aided drug design to generate a unique antibiotic family” (Nature Communications, 2024).
In brackets after ≈: the same amount, converted by molar mass.

How the values were obtained:
Assay in all cases: MIC, clinical and laboratory strains
Assay type in all cases: cell-based
S. epidermidis (MSSE) = system: S. epidermidis (MSSE)
Method: (§1) The medium employed for the assay was Mueller Hinton II Broth (MHB II; Becton-Dickinson, Sparks, MD, USA). Agar plates used for the organisms were trypticase soy agar plus 5% sheep blood (BD; Sparks, MD, USA). MIC assay plates were prepared using the CLSI broth microdilution procedure. Automated liquid handlers (Multidrop 384, Biomek 2000 and Biomek FX) were used to conduct serial dilutions and liquid transfers. A standardized inoculum of each organism was prepared per CLSI methods. Suspensions were prepared to equal a 0.5 McFarland standard, followed by a 1:20 dilution in test media. The inocula were dispensed into sterile reservoirs divided by length (Beckman Colter) and the Biomek 2000 was used to inoculate the plates. Daughter plates were placed on the Biomek 2000 work surface in reverse orientation so that inoculation took place from low to high drug concentration. The Biomek 2000 delivered 10 μL of the diluted suspension into each well. These inoculations yielded a final cell concentration in the daughter plates of ~5 × 10^5 colony-forming units/mL in each well. The wells of the daughter plates ultimately contained 185 μL of broth, 5 μL of drug solution, and 10 μL of bacterial inoculum. Plates were covered with a sterile lid on the top plate, placed in plastic bags, and incubated at 35 °C for ~18 h. The microplates were viewed from the bottom using a plate viewer and the MIC was read. The MIC was recorded as the lowest concentration of drug that inhibited visible growth of the organism.

S. aureus (MSSA) = system: S. aureus (MSSA)
Method: as §1

S. epidermidis (MRSE) = system: S. epidermidis (MRSE)
Method: as §1

S. aureus (VISA) = system: S. aureus (VISA)
Method: as §1

S. aureus (MRSA) = system: S. aureus (MRSA)
Method: as §1

CC(C)c1cc(Cl)ccc1-c1cc(-c2nnn[nH]2)c(-c2ccc(Cl)cc2C(C)C)s1 [DNM0547]
MIC (S. epidermidis (MSSE); S. epidermidis (MSSE) 3234): 4 µg/mL (≈ 8.74 µM)
MIC (S. epidermidis (MSSE); S. epidermidis (MSSE) 3602): 2 µg/mL (≈ 4.37 µM)
MIC (S. epidermidis (MSSE); S. epidermidis (MSSE) 3609): 4 µg/mL (≈ 8.74 µM)
MIC (S. epidermidis (MSSE); S. epidermidis (MSSE) 3617): 1 µg/mL (≈ 2.19 µM)
MIC (S. epidermidis (MSSE); S. epidermidis (MSSE) 3620): 2 µg/mL (≈ 4.37 µM)
MIC (S. epidermidis (MSSE); S. epidermidis (MSSE) 3621): 1 µg/mL (≈ 2.19 µM)
MIC (S. aureus (MSSA); S. aureus (MSSA) 2127): 1 µg/mL (≈ 2.19 µM)
MIC (S. aureus (MSSA); S. aureus (MSSA) 6167): 2 µg/mL (≈ 4.37 µM)
MIC (S. aureus (MSSA); S. aureus (MSSA) 6168): 1 µg/mL (≈ 2.19 µM)
MIC (S. aureus (MSSA); S. aureus (MSSA) 6170): 1 µg/mL (≈ 2.19 µM)
MIC (S. aureus (MSSA); S. aureus (MSSA) 6316): 2 µg/mL (≈ 4.37 µM)
MIC (S. aureus (MSSA); S. aureus (MSSA) 6317): 1 µg/mL (≈ 2.19 µM)
MIC (S. aureus (MSSA); S. aureus (MSSA) 6318): 1 µg/mL (≈ 2.19 µM)
MIC (S. aureus (MSSA); S. aureus (MSSA) 6499): 2 µg/mL (≈ 4.37 µM)
MIC (S. aureus (MSSA); S. aureus (MSSA) 6500): 1 µg/mL (≈ 2.19 µM)
MIC (S. aureus (MSSA); S. aureus (MSSA) 6502): 1 µg/mL (≈ 2.19 µM)
MIC (S. epidermidis (MRSE); S. epidermidis (MRSE) 3679): 2 µg/mL (≈ 4.37 µM)
MIC (S. epidermidis (MRSE); S. epidermidis (MRSE) 3680): 2 µg/mL (≈ 4.37 µM)
MIC (S. epidermidis (MRSE); S. epidermidis (MRSE) 3681): 1 µg/mL (≈ 2.19 µM)
MIC (S. epidermidis (MRSE); S. epidermidis (MRSE) 3683): 2 µg/mL (≈ 4.37 µM)
MIC (S. epidermidis (MRSE); S. epidermidis (MRSE) 3745): 8 µg/mL (≈ 17.5 µM)
MIC (S. epidermidis (MRSE); S. epidermidis (MRSE) 3746): 2 µg/mL (≈ 4.37 µM)
MIC (S. epidermidis (MRSE); S. epidermidis (MRSE) 3747): 2 µg/mL (≈ 4.37 µM)
MIC (S. aureus (VISA); S. aureus (VISA) 1724): 2 µg/mL (≈ 4.37 µM)
MIC (S. aureus (VISA); S. aureus (VISA) 2012): 2 µg/mL (≈ 4.37 µM)
MIC (S. aureus (VISA); S. aureus (VISA) 2013): 2 µg/mL (≈ 4.37 µM)
MIC (S. aureus (VISA); S. aureus (VISA) 2014): 2 µg/mL (≈ 4.37 µM)
MIC (S. aureus (VISA); S. aureus (VISA) 2015): 2 µg/mL (≈ 4.37 µM)
MIC (S. aureus (VISA); S. aureus (VISA) 2016): 2 µg/mL (≈ 4.37 µM)
MIC (S. aureus (VISA); S. aureus (VISA) 2017): 2 µg/mL (≈ 4.37 µM)
MIC (S. aureus (VISA); S. aureus (VISA) 2018): 2 µg/mL (≈ 4.37 µM)
MIC (S. aureus (VISA); S. aureus (VISA) 2019): 1 µg/mL (≈ 2.19 µM)
MIC (S. aureus (VISA); S. aureus (VISA) 2123): 2 µg/mL (≈ 4.37 µM)
MIC (S. aureus (VISA); S. aureus (VISA) NRS1/1723): 2 µg/mL (≈ 4.37 µM)
MIC (S. aureus (MRSA); S. aureus (MRSA) 2167): 1 µg/mL (≈ 2.19 µM)
MIC (S. aureus (MRSA); S. aureus (MRSA) 2168): 1 µg/mL (≈ 2.19 µM)
MIC (S. aureus (MRSA); S. aureus (MRSA) 2169): 2 µg/mL (≈ 4.37 µM)
MIC (S. aureus (MRSA); S. aureus (MRSA) 2170): 1 µg/mL (≈ 2.19 µM)
MIC (S. aureus (MRSA); S. aureus (MRSA) 2171): 1 µg/mL (≈ 2.19 µM)
MIC (S. aureus (MRSA); S. aureus (MRSA) 2293): 2 µg/mL (≈ 4.37 µM)
MIC (S. aureus (MRSA); S. aureus (MRSA) 2294): 1 µg/mL (≈ 2.19 µM)
MIC (S. aureus (MRSA); S. aureus (MRSA) 2295): 1 µg/mL (≈ 2.19 µM)
MIC (S. aureus (MRSA); S. aureus (MRSA) 2296): 1 µg/mL (≈ 2.19 µM)
MIC (S. aureus (MRSA); S. aureus (MRSA) 2297): 2 µg/mL (≈ 4.37 µM)
MIC (S. aureus (MRSA); S. aureus (MRSA) 3880): 1 µg/mL (≈ 2.19 µM)
MIC (S. aureus (MRSA); S. aureus (MRSA) 5373): 1 µg/mL (≈ 2.19 µM)
MIC (S. aureus (MRSA); S. aureus (MRSA) 5666): 1 µg/mL (≈ 2.19 µM)
